Results as given in patent US4297346A, “Pseudopeptides used as medicaments” (priority 1976, dated 1981).

How the values were obtained:
[1] = tested on: tryptophane hydroxylase; details: 4-nitro-amphetamine: in 4 hours, still perceptive two weeks later; cited from earlier work
[2] = tested on: serotonin; details: 4-nitro-amphetamine: in 4 hours, still perceptive two weeks later; cited from earlier work
[3] = tested on: mouse; assay: Potentialisation of the group toxicity to amphetamine; type: in vivo
Procedure: (§1) The different tests which are carried out on mice by the known techniques comprise:
the potentialisation of the group toxicity to amphetamine,
(3) Group toxicity in respect of amphetamine

[4] = tested on: mouse; assay: Anti-reserpine action (interaction with reserpine); type: in vivo
Procedure: as §1
the anti-reserpine action,
(2) Interaction with reserpine

[5] = tested on: mouse; assay: Jumping effects with L-DOPA in mice which have received d-amphetamine; type: in vivo; details: for jumping effects (in words): counted for 90 minutes, L-DOPA 100 mg/kg intraperitoneally
Procedure: as §1
the jerking movements with L-DOPA.
(4) Jumping effects with L-DOPA

[6] = tested on: mouse; assay: Action on the rectal temperature of the mouse (pGlu-His-dopamine); type: in vivo
Procedure: as §1
the action on the rectal temperature of the mouse,
(1) Action on the rectal temperature

[7] = Potentialisation of the toxicity of amphetamine by TRH; type: in vivo
[8] = tested on: mouse; assay: Action on the rectal temperature in the mouse (amphetamic pseudopeptides); type: in vivo; details: for dose causing a hypothermia 30 minutes after injection: small doses
Procedure: action on the rectal temperature in the mouse.
(§2) A comparison of these three substances, pGlu-Amph, pGlu-His-Amph and pGlu-His-Pro-Amph, with amphetamine, has been able to be carried out as follows; for this purpose, the products were administered systematically by intraperitoneal route and by oral route, it being possible for this latter procedure to verify the generally admitted assertion of a gastric hydrolysis of peptides; in this case, the action of the amphetamine should be integrally re-established.
A--Action on the rectal temperature in respect of the mouse

[9] = tested on: mouse; assay: Study of the toxicity in the mouse; type: in vivo
Procedure: study of the toxicity in the mouse.
as §2

[10] = tested on: rat; assay: Induction of stereotype movements in the rat; type: in vivo
Procedure: induction of stereotypes in the rat,
as §2
B--Induction of stereotype movements

[11] = in vivo
[12] = intraperitoneal route, 400 mg/kg
[13] = intraperitoneal route, 600 mg/kg

Compound: CC(N)Cc1ccc(N)cc1 (centres unmarked) [4-amino-amphetamine, p-amino-amphetamine]
- effect on the activity of the tryptophane hydroxylase [1]: not modified to any appreciable degree
- effect on the amount of serotonin [2]: increase in the amount of serotonin

Compound: CC(N)Cc1ccc([N+](=O)[O-])cc1 (centres unmarked) [4-nitro-amphetamine, p-nitro-amphetamine]
- effect on the activity of the tryptophane hydroxylase [1]: decrease in the activity of the tryptophane hydroxylase
- effect on the amount of serotonin [2]: depletion of serotonin

Compound: NCCc1ccc(O)c(O)c1 [Dopamine, dopamine]
- time after the injection of amphetamine at which the effect is developed [3]: about 20 minutes
- effect on the reserpine fall in temperature [4]: small effect
- effect on reserpine ptosis ([4]; effect not lasting): completely counteracts ptosis
- jumping effects (in words) [5]: no jumping effects are produced
- action on the rectal temperature (in words) [6]: hypothermal action, but the amplitude thereof is much smaller

Compound: N[C@@H](Cc1ccc(O)c(O)c1)C(=O)O [L-DOPA]
- behavioural effect in amphetamine group toxicity test (in words) [3]: extreme agitation
- action on the effects of reserpine (temperature, ptosis) ([4]; 400 mg/kg intraperitoneally): antagonises the effects of the reserpine on the temperature and the dropping of the eyelids
- action on the effects of reserpine ([4]; oral administration, same dosage (400 mg/kg)): not found
- jumping effects (in words) [5]: numerous jumping actions
- action on the rectal temperature (in words) [6]: hypothermia

Compound: NC(=O)[C@@H]1CCCN1C(=O)[C@H](Cc1cnc[nH]1)NC(=O)[C@@H]1CCC(=O)N1 [TRH, pGlu-His-Pro-NH2]
- effect on the toxicity of amphetamine ([7]; 25 mg/kg, subcutaneous application): potentialises the toxicity of the amphetamine

Compound: CC(N)Cc1ccccc1 (centres unmarked) [amphetamine, reference compound]
- dose from which a hyperthermia appears ([8]; intraperitoneal route): ≥ 4 mg/kg
- time after which the temperature of the treated animals is again that of the controls ([8]; intraperitoneal route): 2 h
- time of the maximum of the hyperthermia ([8]; intraperitoneal route): 30 min
- dose causing a hypothermia 30 minutes after injection ([8]; intraperitoneal route): 1 mg/kg
- action on the rectal temperature (in words) ([8]; oral route): substantially the same as when applied intraperitoneally
- dose still causing a hypothermia ([8]; oral route): 4 mg/kg
- LD50 of amphetamine ([7]; amphetamine alone): 17.8 mg/kg
- LD50 of amphetamine ([7]; with TRH at 25 mg/kg by subcutaneous application): 5.7 mg/kg
- signs observed with toxic dosages ([9]; intraperitoneal route): general syndrome of excitation
- dosage at which the maximum amplitude of stereotype movements is achieved ([10]; intraperitoneal route): 10 mg/kg
- induction of stereotype movements (in words) ([10]; intraperitoneal route): causes stereotype movements
- duration of the stereotype movements ([10]; intraperitoneal route, 10 mg/kg): ≤ 5 h
- induction of stereotype movements (in words) ([10]; oral route): less significant intensity and of slightly longer duration than by the intraperitoneal route

Compound: CC(Cc1ccccc1)NC(=O)C1CCC(=O)N1 (centres unmarked) [pGlu-Amph, pGlu--Amph]
- action on the rectal temperature (in words) ([8]; intraperitoneal route): very close to that of amphetamine
- dose from which a hyperthermia appears ([8]; intraperitoneal route): ≥ 10 mg/kg
- period of the action compared with amphetamine ([8]; intraperitoneal route): the same
- time of the maximum of the hyperthermia ([8]; intraperitoneal route): 60 min
- dose causing a hypothermia 30 minutes after injection ([8]; intraperitoneal route): 5 mg/kg
- action on the rectal temperature (in words) ([8]; oral route): modelled on that of the amphetamine
- dosage causing mortality of 50% (LD50) ([9]; intraperitoneal route): about 40 mg/kg
- signs observed with toxic dosages ([9]; intraperitoneal route): general syndrome of excitation
- mortality (in words) ([9]; oral route, 30 mg/kg): does not cause any death
- mortality ([9]; oral route, 100 mg/kg): 100%
- induction of stereotype movements (in words) ([10]; intraperitoneal route): completely identical with that of amphetamine
- effect versus that produced by the equivalent amphetamine dose ([10]; intraperitoneal route, dose transformed into contained amphetamine): almost identical or is slightly smaller
- doses versus doses of amphetamine producing a similar/equivalent effect ([10]; oral route): practically equivalent

Compound: CC(Cc1ccccc1)NC(=O)[C@@H]1CCCN1C(=O)[C@H](Cc1c[nH]cn1)NC(=O)[C@@H]1CCC(=O)N1 (stereo partly drawn) [pGlu-His-Pro-Amph, pGlu--His--Pro--Amph]
- mortality ([9]; oral route, 1000 mg/kg): 25%
- time to death ([9]; oral route, 1000 mg/kg): 48 h

Compound: pGlu--His--Amph [pGlu-His-Amph]
- time of the maximum of the hypothermia ([8]; intraperitoneal administration): 1 h
- action on the rectal temperature (in words) ([8]; intraperitoneal route): always produces a hypothermia
- dose from which a hyperthermia appears ([8]; intraperitoneal route): above 50 mg/kg
- time of the maximum of the hyperthermia ([8]; intraperitoneal route): approximately 3 hours
- action on the rectal temperature (in words) ([8]; oral route): always causes a hypothermia followed by a hyperthermia proportional to the administered dose
- time of the maximum of the hypothermia ([8]; oral route): 2 h
- toxicity versus amphetamine (summary) ([9]; in vivo): less than that of amphetamine
- mortality [9, 12]: 10%
- time after which agitation is established [9, 12]: 30 min
- dead mice [9, 13]: 6 mice out of 10
- time to death [9, 13]: less than 30 minutes
- time to death ([9]; intraperitoneal route, 800 mg/kg): less than 3 min
- duration of stereotypic movements observed in the toxicity study ([9]; oral route): more than 24 hours
- mice dead ([9]; oral route, 2400 mg/kg): 50%
- immediate death ([9]; oral route, even with 2400 mg/kg): no longer observed
- duration of action in the stereotyped movements test versus amphetamine (summary) ([10]; in vivo): much longer lasting action
- dosage of contained amphetamine versus dosage of amphetamine causing an equal intensity of stereotypes ([10]; intraperitoneal route): three times greater
- induction of stereotype movements (in words) ([10]; intraperitoneal route): also causes stereotypes
- duration of the stereotype movements ([10]; intraperitoneal route, strongest dosage): exceeds 7 hours
- duration of the stereotyped movements ([10]; oral route): 271/2
- induction of stereotype movements (in words) ([10]; oral route): much greater effect as regards intensity and duration than when applied intraperitoneally
- time the action takes to appear ([10]; oral route): about 3 hours

Compound: pGlu--His--DA [pGlu-His-dopamine]
- behavioural effect in amphetamine group toxicity test (in words) [3]: identical with those of dopamine
- action on the effects of reserpine (temperature, ptosis) ([4]; 400 mg/kg intraperitoneally): slightly counteracts simultaneously the ptosis and the fall in temperature
- duration of the anti-reserpine action ([4]; 400 mg/kg intraperitoneally): less than 11/2
- time of onset of the antioxotremorine action [11]: 15 min
- delay in the occurrence of the jumping effects versus L-DOPA [5]: greater
- total number of jumps recorded versus L-DOPA [5]: smaller than that with L-DOPA
- jumping effects (in words) [5]: the same as with L-DOPA
- action on the rectal temperature (in words) [6]: highly significant hypothermia
- time of occurrence of the hypothermia ([6]; relatively high dosage): 15 min
